Data taken from patent US20050233461A1, “High-throughput methods and systems for screening of compounds to treat/prevent kidney disorders” (priority 2002, published 2005).
Structures can show the parent of a compound that is named as a salt. Where two headings read alike, the source gives them in different places.

Columns and labels:
[1] = high throughput screen of components for modifying calcium oxalate crystal growth (crystal imaging)
Protocol: Next, the seed crystals are incubated in supersaturated calcium oxalate medium. This medium may have one or more of components for testing. Nucleation and changes in a crystal property (such as crystal growth) are detected by comparing signals obtained from a sample at different times and/or after changing the medium. For example, a signal for a sample can be taken at the beginning of incubation, and then optionally at one or more times during incubation, and then at the end of incubation. The number and time for obtaining signals from or screening a sample will depend on the particular experiment and will be readily apparent to the skilled artisan. These signals or screens of samples may be photographs of birefringent spots, the size of the spots (measured in pixels), calculations based on the pixels and their distribution in a birefringence- or plain light-based image, in-situ Raman spectroscopy to monitor growth or determine the composition of one or more crystals, signals for the concentration of component(s) in the medium, and the like.
FIG. 2 illustrates one such embodiment. Sodium oxalate and calcium chloride solutions are prepared during steps 200 and 205 respectively. Following mixing during step 210 to obtain supersaturated calcium oxalate medium, also described in FIG. 1, monitoring while incubating during step 215 detects the formation of seed crystals. Next, the medium is removed during step 220 followed by addition of fresh medium containing test components during step 225. The test component(s) are preferably added to the sodium oxalate solution used to make the medium. Alternatively, they could be added in the calcium chloride solution for making the medium, or in a separate solution, or as solids, or even mixed in, or any combination thereof.
Some processing of arrays is also seen in the method illustrated in FIG. 2. Further incubation of seed crystals during step 230 and imaging during step 235 provide data about the growth and/or nucleation of crystals. The high throughput method of FIG. 2 includes estimating a nucleation and/or growth rate from a number of birefringent spots. An increase in the nucleation rate, or observing little or no crystal growth, ascribable to a component may indicate a therapeutic use for treating diseases, conditions, or disorders associated with calculi or crystal deposition (e.g., nephrolithiasis) by reducing the average size of the crystals, stones or calculi to facilitate excretion. Alternatively, a significant decrease in the nucleation rate ascribable to a component may indicate a therapeutic use for treating diseases, conditions, or disorders associated with calculi or crystal deposition (e.g., nephrolithiasis) by decreasing the rate of stone or calculi formation.
The photograph of the illuminated crystals, e.g., obtained in step 235 of FIG. 2, may be further analyzed to estimate a number of pixels corresponding to a crystal spot.
Other properties of crystals may also be obtained from the pixel measurements in step 240 of FIG. 2. The photograph of the illuminated crystals also allows an estimate of a long and a short dimension among many possible measures. These reflect the habit of the crystal spot and may be used to predict crystals that are likely to be excreted more easily. For instance, small and even shaped crystals are more likely to be excreted than spiny crystal shapes, thus permitting high throughput screening for promising therapeutic candidates.
In FIG. 7, during step 700 one or more substances of interest are identified. […] The identified substances, added in solutions of calcium chloride or sodium oxalate, are subjected to screening via a high-throughput growth inhibitor screen during step 705. Accordingly, growth of crystals in supersaturated calcium oxalate medium is observed in the presence or absence of identified substances. Such growth may be of seed crystals or may include nucleation of crystals as well as growth.

[2] = turbidity based assay of crystal nucleation and growth in supersaturated calcium oxalate solutions; conditions: FIG. 10 and FIG. 11
Excerpt: FIG. 10 illustrates the effect of citrate on growth and nucleation of crystals in supersaturated calcium oxalate solutions as measured by turbidity at 620 nm.
FIG. 11 is an example of turbidity based assay showing crystal nucleation and growth in supersaturated calcium oxalate solutions prepared in accordance with the method of FIG. 1.
The system also includes means for preparing metastable formulations such as supersaturated solutions. In a preferred design, supersaturated media for nucleating and growing crystals are prepared by mixing two stable components to give rise to a metastable supersaturated solution. […] This supersaturated mixture may be monitored after incubation for a predetermined duration during step 115. […]
Preferably, calcium oxalate crystals are also used to seed the supersaturated calcium oxalate solution in some samples to assess their growth or the lack thereof. Absorbance at about 620 nm provides a measure of turbidity and a decrease in turbidity indicates either aggregation or crystals/precipitate or reduction in the precipitation/crystal growth of calcium oxalate crystals. It should be noted that turbidity may be measured at other wavelengths as well including wavelengths corresponding to visible light and ultraviolet light. Preferably, but not as a requirement, turbidity is measured by evaluating light scattered at an angle to the incident light. […]

[3] = supersaturated calcium oxalate, amounts and concentrations in FIGS. 9A and 9B

## O=C(O)C(O)c1ccc(Br)cc1 (stereo not shown) [4-bromomandelic acid]
[1]; [3]
  crystal habit / form of material observed: absence of plate like structures
  large (intermediate to large) crystals: number / size observed: larger sized crystals being formed

## CCCCCCCCCCCCCCCCC(C(=O)O)C(O)(CC(=O)O)C(=O)O (stereo not shown) [agaric acid]
[1]; [3]
  crystal habit / form of material observed: formation of an emulsion/suspension

## NS(=O)(=O)c1cc(C(=O)O)c(NCc2ccco2)cc1Cl [furosemide, reference compound]
[1]; [3]
  large (intermediate to large) crystals: number / size observed: many more large crystals

## O=C(O)CNC(=O)c1ccccc1 [hippuric acid]
[1]; [3]
  overall effect on calcium oxalate crystals (number of crystals): little effect

## COc1ccc2c(c1)c(CC(=O)O)c(C)n2C(=O)c1ccc(Cl)cc1 [indomethacin, reference compound]
[1]; [3]
  large (intermediate to large) crystals: number / size observed: reduction in the number of large crystals
  small crystals: number observed: little change in the number of small crystals

## O=C([O-])[C@H](O)[C@@H](O)[C@H](O[C@@H]1O[C@H](CO)[C@H](O)[C@H](O)[C@H]1O)[C@H](O)CO.O=C([O-])[C@H](O)[C@@H](O)[C@H](O[C@@H]1O[C@H](CO)[C@H](O)[C@H](O)[C@H]1O)[C@H](O)CO.[Ca+2] [lactobionic acid hemi calcium salt]
[1]; [3]
  large (intermediate to large) crystals: number / size observed: presence of very large crystals in some wells

## O=C(O)[C@H](O)[C@@H](O)[C@H](O[C@@H]1O[C@H](CO)[C@H](O)[C@H](O)[C@H]1O)[C@H](O)CO [lactobionic acid]
[1]; [3]
  overall effect on calcium oxalate crystals (number of crystals): many small and large crystals

## O=C(O)C(O)c1ccccc1 (stereo not shown) [mandelic acid]
[1]; [3]
  overall effect on calcium oxalate crystals (number of crystals): little effect

## CN(C)c1ccc2nc3ccc(=[N+](C)C)cc-3sc2c1 [methylene blue, reference compound]
[1]; [3]
  large (intermediate to large) crystals: number / size observed: reduction in large crystals

## CCCN(CCC)S(=O)(=O)c1ccc(C(=O)O)cc1 [probenicid, reference compound]
[1]; [3]
  overall effect on calcium oxalate crystals (number of crystals): little effect
  small crystals: number observed: a few more small crystals

## O=C(O)CC(O)(CC(=O)O)C(=O)O [sodium citrate]
[2]; 3 mM sodium citrate, turbidity at 620 nm
  turbidity of supersaturated calcium oxalate compared to supersaturated calcium oxalate by itself: dramatically reduces the turbidity
[2]
  formation of calcium oxalate crystals in a supersaturated calcium oxalate solution: effective, although limited, in reducing the formation of calcium oxalate crystals

## CC(=O)OC[C@H]1O[C@@](COC(C)=O)(O[C@H]2O[C@H](COC(C)=O)[C@@H](OC(C)=O)[C@H](OC(C)=O)[C@H]2OC(C)=O)[C@@H](OC(C)=O)[C@@H]1OC(C)=O [sucrose octaacetate]
[1]; [3]
  overall effect on calcium oxalate crystals (number of crystals): increased number (countable) of crystals

## O=C(O)C1OC(C(=O)O)C(C(=O)O)C1C(=O)O (stereo not shown) [tetrahydrofuran-2,3,4,5-tetracarboxylic acid]
[1]; [3]
  large (intermediate to large) crystals: number / size observed: reduced number of intermediate to large crystals
  small crystals: number observed: increased number of small crystals

## atrolactic acid hemihydrate
[1]
  large (intermediate to large) crystals: number / size observed: reduction in large crystals
